Measurements from patent US20100197803A1, “METHOD FOR OBTAINING A SEQUOYITOL-CONTAINING EXTRACT FROM A PLANT OF THE GENUS OF TRIFOLIUM, LEGUMINOSAE OR GINKOACEAE AND USES THEREOF” (LIANCHUANGSIYUANLI BIOLOGY AND SCIENCE AND TECHNOLOGY CO., …, priority 2007, published 2010).
Structures can show the parent of a compound that is named as a salt.

Columns and labels:
[1] = Solubility in water; assay type: physicochemical
Description: The sequoyitol was dissolved in water and sterilized by filtration. Solutions for injection were prepared according to the preparation process of solutions for injection. Powder for injection was prepared according to the preparation process of lyophilized powder for injection.

[2] = system: diabetes models; conditions: sequoyitol isolated from Taxus chinensis; cited from earlier work
[3] = sequoyitol isolated from Taxus chinensis; cited from earlier work
[4] = system: elevated level of blood glucose induced by Alloxan in mice; assay: Effect on the elevated level of blood glucose induced by alloxan in mice; assay type: in vivo; conditions: 75 mg/kg for 7 days
Description: Animals: 100 male mice weighed 22-25 g, Positive control: Phenformin Hydrochloride (Jiangsu Yabang Pharmaceutical (group) Co., Ltd.),
20 mice were randomly selected as the blank group. Others were injected intravenously with Alloxan via caudal vein at a dose of 65 mg/kg body weight, and then modeled according to established methods. The mice were divided into 4 groups according to their level of blood glucose, in which 3 groups were administered with 60 mg/kg of the plant extract, 75 mg/kg of Phenformin Hydrochloride, or 60 mg/kg of sequoyitol-containing Taxus chinensis extract respectively for 7 days, in a volume of 0.1 ml/10 g body weight. The same volume of distilled water was administered to the blank group and the control group. Blood glucose was determined using glucose oxidase method.

Compound	Solubility in water [1]	Effect on breakdown of hepatic glycogen and absorption of glucose [2]	Effect on high glycemia in diabetes models [2]	Toxicity [3]	Decrease of alloxan-induced hyperglycemia in comparison to the control group [4] [mg/dL]
CO[C@H]1[C@H](O)[C@@H](O)[C@@H](O)[C@@H](O)[C@@H]1O [Sequoyitol, sequoyitol]	well soluble in water	inhibits the breakdown of hepatic glycogen and the absorption of glucose	remarkably decreases high glycemia	very low toxicity	
[H]/N=C(/N)N/C(=N/[H])NCCc1ccccc1 [Phenformin Hydrochloride]					155.8
